Here are results for 13 compounds from article PMC8877233, “The Hydrophobicity and Antifungal Potentiation of Burkholdine Analogues” (Molecules, 2022).

Data set [1] can be described thus: RP-HPLC retention time as measure of hydrophilicity/hydrophobicity. In kind it is physicochemical. The settings on record: chromatographic, Cosmosil 5C18-AR-II 4.6 x 150 mm, linear gradient 30–70% MeCN/H2O (0.1% TFA) for 30 min, 1 mL/min, UV 220 nm. As for the experimental part:
[…] In all cases, the retention times of the (S)-Dab-containing peptides were shorter than those of the (R)-Dab-containing peptides, which were similar to those bearing L-Orn. The retention times of the cyclic peptides were shorter for Tat > D-Ser > L-Thr > L-Ser, while peptides bearing the undecanoic acid moiety eluted […] than those bearing the decanoic acid by about 2 min.

For data set [2], the system named is S. cerevisiae (ATCC204504). In kind it is cell-based. The settings on record: ATCC204504, 24 h. As for the experimental part:
Bacto yeast extract (0.63 g, 70161, Fluka, Barcelona, Spain), peptone (1.00 g, 26421, Mikuni, Japan), and glucose (1.00 g, 16806-25, Nacalai tesque, Japan) were added to H2O (50 mL) at room temperature and the mixture was heated to 60 °C. After 30 min, the mixture was sterilized by heating in an autoclave at 121 °C for 20 min.
DMSO (8 µL, 13406-55, Nacalai tesque, Japan) was added to YPD medium (750 µL). The test fungus culture solution (3 µL) was added to this solution (1.5 mL).
The inhibitor (each 1.0 mg; 3a–h, 4a–b, 5a–b, 6a–b, 7, 8) was dissolved in DMSO (40 µL).
The prepared test bacteria (50 µL) were placed in A1–A12 of a 96-well plate. Bk analogue (50 µL) was added to A1, pipetting was performed, and then 50 µL was extracted from A1 and placed in A2. This operation was repeated until A11, and 50 µL extracted from A11 was discarded. The well plate was closed and incubated at 30 °C. After 24 h, the MIC values were evaluated.

Converted amounts (≈) assume the structure as drawn. Starred links: 1 amine or outer side, 2 acyl side, 3 side chain; linkers in the order of their positions; H or OH if unused. Positions of bridges follow the written chain, without caps; N, C: chain ends. Non-standard residues stand in square brackets, D forms with d. Residues, ends and D or L forms follow the SMILES beside them. *: point of attachment. X12 = CCCCCCCCCCC(=O)N[C@H](C(=O)NC[C@H](CC(=O)[*:1])N[*:2])[C@@H](C)O; X11 = CCCCCCCCNC(=O)[C@H](O)[C@@H](O)C(=O)NC[C@H](CC(=O)[*:1])N[*:2]; X10 = CCCCCCCCCCCC(=O)N[C@@H](CO)C(=O)NC[C@@H](CC(=O)[*:1])N[*:2]; X13 = CCCCCCCCCCC(=O)N[C@@H](CO)C(=O)NC[C@H](CC(=O)[*:1])N[*:2]; X5 = CCCCCCCCCCCC(=O)N[C@@H](CO)C(=O)NC[C@H](CC(=O)[*:1])N[*:2]; X7 = CCCCCCCCCCCC(=O)N[C@H](CO)C(=O)NC[C@@H](CC(=O)[*:1])N[*:2]; X1 = CCCCCCCCCCC(=O)N[C@H](CO)C(=O)NC[C@@H](CC(=O)[*:1])N[*:2]; X4 = CCCCCCCCCCCC(=O)N[C@H](CO)C(=O)NC[C@H](CC(=O)[*:1])N[*:2]; Undecanoyl = CCCCCCCCCCC(=O)*; Lauroyl = CCCCCCCCCCCC(=O)*; Orn = NCCC[C@H](N)C(=O)O

In data set [1], `CCCCCCCCCCC(=O)N[C@@H](CO)C(=O)NC[C@@H]1CC(=O)N[C@H](CO)C(=O)N[C@H](Cc2ccc(O)cc2)C(=O)N[C@H](CC(N)=O)C(=O)NCC(=O)N[C@@H](CC(N)=O)C(=O)N[C@@H](CO)C(=O)N[C@@H](CC(N)=O)C(=O)N1` [Compound 3a, Cyclo-[Undecanoic Acid-Ser-(S)-7-D-Ser-D-Tyr-D-Asn-Gly-Asn-Ser-Asn]] ([dS][dY][dN]GNSN; linker N-C via X13) gave a tR of 9.3 min. This compound also gave a minimal inhibitory concentration (MIC) in data set [2] of over 200 µg/mL.
In the case of `CCCCCCCCCCCC(=O)N[C@H](CO)C(=O)NC[C@@H]1CC(=O)N[C@H](CO)C(=O)N[C@H](Cc2ccc(O)cc2)C(=O)N[C@H](CC(N)=O)C(=O)NCC(=O)N[C@@H](CC(N)=O)C(=O)N[C@@H](CO)C(=O)N[C@@H](CC(N)=O)C(=O)N1` [Compound 3d, Cyclo-[Dodecanoic Acid-D-Ser-(S)-7-D-Ser-D-Tyr-D-Asn-Gly-Asn-Ser-Asn]] ([dS][dY][dN]GNSN; linker N-C via X4), the tR in data set [1] came out at 11.8 min. Moreover, the minimum inhibitory concentration (MIC) in data set [2] was over 200 µg/mL.
Taken in the same sequence, the figures for `CCCCCCCCCCC(=O)N[C@H](CO)C(=O)NC[C@H]1CC(=O)N[C@H](CO)C(=O)N[C@H](Cc2ccc(O)cc2)C(=O)N[C@H](CC(N)=O)C(=O)NCC(=O)N[C@@H](CC(N)=O)C(=O)N[C@@H](CO)C(=O)N[C@@H](CC(N)=O)C(=O)N1` [Compound 3g, Cyclo-[Undecanoic Acid-D-Ser-(R)-7-D-Ser-D-Tyr-D-Asn-Gly-Asn-Ser-Asn]] ([dS][dY][dN]GNSN; linker N-C via X1) were 9.6 min and over 200 µg/mL.
For `CCCCCCCCCCCC(=O)N[C@H](CO)C(=O)N[C@H]1CCCNC(=O)[C@H](CC(N)=O)NC(=O)[C@H](CO)NC(=O)[C@H](CC(N)=O)NC(=O)CNC(=O)[C@@H](CC(N)=O)NC(=O)[C@@H](Cc2ccc(O)cc2)NC(=O)[C@@H](CO)NC1=O` [Compound 6d, Cyclo-[Dodecanoic Acid-D-Ser-Orn-D-Ser-D-Tyr-D-Asn-Gly-Asn-Ser-Asn]] (Lauroyl-[dS][Orn][dS][dY][dN]GNSN; lactam 2-C), in that order: 11.2 min and over 200 µg/mL.
For `CCCCCCCCCCCC(=O)N[C@H](CO)C(=O)NC[C@H]1CC(=O)N[C@H](CO)C(=O)N[C@H](Cc2ccc(O)cc2)C(=O)N[C@H](CC(N)=O)C(=O)NCC(=O)N[C@@H](CC(N)=O)C(=O)N[C@@H](CO)C(=O)N[C@@H](CC(N)=O)C(=O)N1` [Compound 3h, Cyclo-[Dodecanoic Acid-D-Ser-(R)-7-D-Ser-D-Tyr-D-Asn-Gly-Asn-Ser-Asn]] ([dS][dY][dN]GNSN; linker N-C via X7), in that order: 11.8 min and over 200 µg/mL.
`CCCCCCCCCCC(=O)N[C@H](C(=O)NC[C@@H]1CC(=O)N[C@H](CO)C(=O)N[C@H](Cc2ccc(O)cc2)C(=O)N[C@H](CC(N)=O)C(=O)NCC(=O)N[C@@H](CC(N)=O)C(=O)N[C@@H](CO)C(=O)N[C@@H](CC(N)=O)C(=O)N1)[C@@H](C)O` [Compound 4a, Cyclo-[Undecanoic Acid-Thr-(S)-7-D-Ser-D-Tyr-D-Asn-Gly-Asn-Ser-Asn]] ([dS][dY][dN]GNSN; linker N-C via X12) registered a tR in data set [1] of 10.4 min. Moreover, the MIC in data set [2] was over 200 µg/mL.
For `CCCCCCCCCCC(=O)N[C@@H](CO)C(=O)N[C@H]1CCCNC(=O)[C@H](CC(N)=O)NC(=O)[C@H](CO)NC(=O)[C@H](CC(N)=O)NC(=O)CNC(=O)[C@@H](CC(N)=O)NC(=O)[C@@H](Cc2ccc(O)cc2)NC(=O)[C@@H](CO)NC1=O` [Compound 6a, Cyclo-[Undecanoic Acid-Ser-Orn-D-Ser-D-Tyr-D-Asn-Gly-Asn-Ser-Asn]] (Undecanoyl-S[Orn][dS][dY][dN]GNSN; lactam 2-C), in that order: 9.7 min and over 200 µg/mL.
For `CCCCCCCCNC(=O)[C@H](O)[C@@H](O)C(=O)NC[C@@H]1CC(=O)N[C@H](CO)C(=O)N[C@H](Cc2ccc(O)cc2)C(=O)N[C@H](CC(N)=O)C(=O)NCC(=O)N[C@@H](CC(N)=O)C(=O)N[C@@H](CO)C(=O)N[C@@H](CC(N)=O)C(=O)N1` [Compound 5a, Cyclo-[(2R,3R)-2,3-dihydroxy-4-(octylamino)-4-oxobutanoic Acid-(S)-7-D-Ser-D-Tyr-D-Asn-Gly-Asn-Ser-Asn]] ([dS][dY][dN]GNSN; linker N-C via X11), in that order: 5.3 min and over 200 µg/mL.
In turn, `CCCCCCCCCCC(=O)N[C@H](C(=O)N[C@H]1CCCNC(=O)[C@H](CC(N)=O)NC(=O)[C@H](CO)NC(=O)[C@H](CC(N)=O)NC(=O)CNC(=O)[C@@H](CC(N)=O)NC(=O)[C@@H](Cc2ccc(O)cc2)NC(=O)[C@@H](CO)NC1=O)[C@@H](C)O` [Compound 7, Cyclo-[Undecanoic Acid-Thr-Orn-D-Ser-D-Tyr-D-Asn-Gly-Asn-Ser-Asn]] (Undecanoyl-T[Orn][dS][dY][dN]GNSN; lactam 2-C) returned a tR in data set [1] of 10.6 min. Besides, in data set [2], the MIC was over 200 µg/mL.
For the compound `CCCCCCCCCCC(=O)N[C@H](CO)C(=O)N[C@H]1CCCNC(=O)[C@H](CC(N)=O)NC(=O)[C@H](CO)NC(=O)[C@H](CC(N)=O)NC(=O)CNC(=O)[C@@H](CC(N)=O)NC(=O)[C@@H](Cc2ccc(O)cc2)NC(=O)[C@@H](CO)NC1=O` [Compound 6c, Cyclo-[Undecanoic Acid-D-Ser-Orn-D-Ser-D-Tyr-D-Asn-Gly-Asn-Ser-Asn]] (Undecanoyl-[dS][Orn][dS][dY][dN]GNSN; lactam 2-C), the MIC in data set [2] is over 200 µg/mL.
The compound `CCCCCCCCCCCC(=O)N[C@@H](CO)C(=O)N[C@H]1CCCNC(=O)[C@H](CC(N)=O)NC(=O)[C@H](CO)NC(=O)[C@H](CC(N)=O)NC(=O)CNC(=O)[C@@H](CC(N)=O)NC(=O)[C@@H](Cc2ccc(O)cc2)NC(=O)[C@@H](CO)NC1=O` [Compound 6b, Cyclo-[Dodecanoic Acid-Ser-Orn-D-Ser-D-Tyr-D-Asn-Gly-Asn-Ser-Asn]] (Lauroyl-S[Orn][dS][dY][dN]GNSN; lactam 2-C) came in with a tR in data set [1] of 12.1 min. In data set [2], this compound showed a minimal inhibitory concentration (MIC) of over 200 µg/mL.
For `CCCCCCCCCCCC(=O)N[C@@H](CO)C(=O)NC[C@H]1CC(=O)N[C@H](CO)C(=O)N[C@H](Cc2ccc(O)cc2)C(=O)N[C@H](CC(N)=O)C(=O)NCC(=O)N[C@@H](CC(N)=O)C(=O)N[C@@H](CO)C(=O)N[C@@H](CC(N)=O)C(=O)N1` [Compound 3f, Cyclo-[Dodecanoic Acid-Ser-(R)-7-D-Ser-D-Tyr-D-Asn-Gly-Asn-Ser-Asn]] ([dS][dY][dN]GNSN; linker N-C via X10), in that order: 11.8 min and 200 µg/mL (≈ 181 µM).
As to `CCCCCCCCCCCC(=O)N[C@@H](CO)C(=O)NC[C@@H]1CC(=O)N[C@H](CO)C(=O)N[C@H](Cc2ccc(O)cc2)C(=O)N[C@H](CC(N)=O)C(=O)NCC(=O)N[C@@H](CC(N)=O)C(=O)N[C@@H](CO)C(=O)N[C@@H](CC(N)=O)C(=O)N1` [Compound 3b, Cyclo-[Dodecanoic Acid-Ser-(S)-7-D-Ser-D-Tyr-D-Asn-Gly-Asn-Ser-Asn]] ([dS][dY][dN]GNSN; linker N-C via X5), in data set [1], the tR is 11.7 min. In data set [2], the minimal inhibitory concentration (MIC) was determined as 100 µg/mL (≈ 90.4 µM).

A word on the MIC: it is the lowest concentration that inhibits growth of the organism.
